Test results reported in patent US20040229821A1, “Orally administrable pharmaceutical compositions and methods for preventing food-drug interaction” (priority 2003, published 2004).
Like-named read-outs stand apart in the source and are kept apart here.

Tests used:
thrombin = thrombin (Homo sapiens, UniProt P00734); details: cited from earlier work
trypsin [1] = molecular target: T1, trypsin (Bos taurus, UniProt P00760); details: cited from earlier work
T1 construct: gene PRSS1
T1 sequence (P00760 24-246): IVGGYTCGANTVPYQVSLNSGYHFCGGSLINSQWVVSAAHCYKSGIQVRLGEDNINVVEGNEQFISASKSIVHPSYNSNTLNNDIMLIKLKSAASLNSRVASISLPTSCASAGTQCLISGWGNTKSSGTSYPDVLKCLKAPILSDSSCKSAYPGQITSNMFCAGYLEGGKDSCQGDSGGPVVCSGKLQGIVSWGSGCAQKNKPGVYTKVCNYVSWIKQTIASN

[2] = dogs, oral; cited from earlier work
[3] = Pharmacokinetic test of Drug A in rats, empty stomach vs after food intake; assay type: in vivo; details: oral, absorbed well on an empty stomach
Source text: (§1) Other oral thrombin inhibitors under development than Drug A have been reported to show changes of bioavailability by food intake. […] The above two substances have different activities not only on thrombin but also on trypsin. […] In other words, the bioavailability of S18326 with higher activity on trypsin was more affected by food intake than S31922. […] Its activity on trypsin has not yet been reported, but since it is an ariginine (Arg) derivative like S18326, it is anticipated to have high activity on trypsin. […] The bioavailability of melagatran is affected by food intake because it has a charge in the intestinal pH, and so its membrane permeability is decreased [D. Gustafsson et al., The direct thrombin inhibitor melagatran and its oral prodrug H376/95: Intestinal absorption properties, biochemical and pharmacodynamic effects, Thrombosis Res., 101(2001) 171-181]. In order to improve the decreased membrane permeability, its prodrug was prepared and confirmed to have improved bioavailability and to prevent the bioavailability variance by food intake. However, melagatran is also one in the series of strong basic group, amidine, and thus has a strong inhibitory effect on trypsin.

[4] = Pharmacokinetic test of Drug A in dogs, empty stomach vs after food intake; assay type: in vivo; details: oral
Source text: as §1
Drug A is an orally active thrombin inhibitor, and is effective for preventing or treating the formation of thrombus. […]

trypsin [5] = molecular target: T1, trypsin; test: Activity (IC50) on trypsin; assay type: biochemical; details: stated in words
Source text: as §1

[6] = humans, oral; cited from earlier work
[7] = rats, oral; cited from earlier work

Molecule | IC50 (thrombin) | IC50 (trypsin [1]) | Bioavailability after food intake [2] | Bioavailability on an empty stomach [2] | Change of bioavailability after food intake [6] | also measured
NCCCCC(NC(=O)C1(C(=O)NCCc2ccccc2)CCCC1)B(O)O (stereo not drawn) [Example S-31922] | 0.043 µM | 0.34 µM | 22% | 36% | – | –
CC(=O)N[C@H](Cc1ccccc1)C(=O)N(CC(=O)N[C@@H](CCCN=C(N)N)B(O)O)C1CCCC1 [Example S-18326] | 0.0036 µM | 0.02 µM | 6% | 27% | – | –
N=C(N)c1ccc(CNC(=O)[C@@H]2CCCN2C(=O)[C@H](NCC(=O)O)C(c2ccccc2)c2ccccc2)s1 [Drug A, (2S)-N-{5-[amino(imino)methyl]-2-thienyl}methyl-1-{(2R)-2-[(carboxymethyl)amino]-3,3-diphenylpropanoyl}-2-pyrrolidinecarboxamide] | – | – | – | – | – | Change of bioavailability when administered after food intake [3]: remarkably decreased; Bioavailability after food intake relative to empty stomach ([4]; dog, in vivo, solution of Drug A, read-out: Bioavailability after food intake compared with on an empty stomach): 10%; Change of bioavailability when administered after food intake ([4]; absorbed well on an empty stomach): remarkably decreased; Activity on the digestive enzyme trypsin (trypsin [5]): high activity
N=C(N)c1ccc(CNC(=O)[C@@H]2CCN2C(=O)[C@H](NCC(=O)O)C2CCCCC2)cc1 [melagatran] | – | – | – | – | remarkably decreased | –
R-Piq-Pro-Arg-H | – | – | – | – | remarkably decreased | Change of bioavailability after food intake [7]: remarkably decreased
